According to ChEMBL document CHEMBL1201862, “PubChem BioAssay data set” (2004):
Calls of active or inactive are those of the source.

What was measured:
[1] = target: Mu-type opioid receptor (Homo sapiens, UniProt P35372); format: functional, cell-based;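 also: U2OS cells with beta-arrestin recruitment to OPRM1 by beta-gal complementation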
[2] = target: 5-hydroxytryptamine receptor 2A (Mus musculus, UniProt P35363); format: functional, cell-based;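 also: CHO-K1 cells with tagged receptor and beta-arrestin; agonist potency measured as compound-induced activation of the receptor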
[3] = target: T1, Microphthalmia-associated transcription factor (Homo sapiens, UniProt O75030); experiment: TRPM1 promoter luciferase signal decrease, dose response, MITF inhibitor project, cell-based, SK-MEL-5, cherry-picked, set 3 (AID 493073); format: functional
T1 sequence (O75030 whole entry): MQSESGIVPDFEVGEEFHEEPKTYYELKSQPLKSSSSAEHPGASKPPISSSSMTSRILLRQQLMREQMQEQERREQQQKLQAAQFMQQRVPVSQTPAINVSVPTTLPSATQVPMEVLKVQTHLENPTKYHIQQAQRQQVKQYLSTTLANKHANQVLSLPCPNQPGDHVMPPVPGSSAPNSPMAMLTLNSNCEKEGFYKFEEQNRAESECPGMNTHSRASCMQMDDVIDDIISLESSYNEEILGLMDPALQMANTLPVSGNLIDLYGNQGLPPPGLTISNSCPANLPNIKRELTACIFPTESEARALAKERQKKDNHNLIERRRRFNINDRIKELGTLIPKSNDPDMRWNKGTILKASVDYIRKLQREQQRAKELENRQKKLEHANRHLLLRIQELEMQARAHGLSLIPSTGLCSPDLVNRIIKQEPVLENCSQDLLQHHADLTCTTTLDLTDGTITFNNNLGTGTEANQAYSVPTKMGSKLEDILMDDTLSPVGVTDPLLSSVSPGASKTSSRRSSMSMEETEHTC

[4] = target: T2, Insulin-degrading enzyme (Homo sapiens, UniProt P14735); experiment: activators of recombinant IDE enzyme, dose response, counter-screen for IDE activator project, biochemical, fluorescence polarization (AID 588681)
T2 sequence (P14735 whole entry): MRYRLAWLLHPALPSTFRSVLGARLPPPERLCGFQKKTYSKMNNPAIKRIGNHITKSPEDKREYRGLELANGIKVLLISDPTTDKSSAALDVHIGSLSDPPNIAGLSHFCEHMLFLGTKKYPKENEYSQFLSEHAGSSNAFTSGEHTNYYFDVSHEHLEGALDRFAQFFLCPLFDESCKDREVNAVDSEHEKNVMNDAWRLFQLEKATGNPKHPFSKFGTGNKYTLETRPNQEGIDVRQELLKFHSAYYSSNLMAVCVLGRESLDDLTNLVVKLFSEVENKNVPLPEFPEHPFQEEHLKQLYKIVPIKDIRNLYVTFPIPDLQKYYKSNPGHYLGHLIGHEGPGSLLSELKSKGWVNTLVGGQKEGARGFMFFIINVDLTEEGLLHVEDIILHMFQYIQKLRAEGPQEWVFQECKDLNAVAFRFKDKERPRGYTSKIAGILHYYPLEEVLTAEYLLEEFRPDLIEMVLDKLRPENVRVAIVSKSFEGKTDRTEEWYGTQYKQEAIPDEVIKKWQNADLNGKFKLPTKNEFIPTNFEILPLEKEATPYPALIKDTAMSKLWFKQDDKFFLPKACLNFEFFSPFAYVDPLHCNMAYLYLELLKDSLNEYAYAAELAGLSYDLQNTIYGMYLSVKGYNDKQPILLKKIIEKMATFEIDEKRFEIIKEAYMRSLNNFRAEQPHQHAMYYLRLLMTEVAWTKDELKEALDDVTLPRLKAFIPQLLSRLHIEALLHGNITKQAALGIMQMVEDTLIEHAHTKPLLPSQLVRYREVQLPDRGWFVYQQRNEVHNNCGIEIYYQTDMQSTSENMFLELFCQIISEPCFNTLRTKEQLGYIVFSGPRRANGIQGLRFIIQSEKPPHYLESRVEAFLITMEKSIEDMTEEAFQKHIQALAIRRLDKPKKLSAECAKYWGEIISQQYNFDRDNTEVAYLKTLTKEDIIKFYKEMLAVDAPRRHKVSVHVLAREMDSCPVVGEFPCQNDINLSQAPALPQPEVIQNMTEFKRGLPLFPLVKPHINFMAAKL

[5] = target: T2, Insulin-degrading enzyme; experiment: activators of endogenous IDE in HEK cells, dose response, cell-based, fluorescence polarization (AID 588439); format: functional
[6] = tested on: A-375; experiment: MITF: Counter assay: A375 proliferation Measured in Cell-Based System Using Plate Reader - 2084-03_Inhibitor_Dose_DryPowder_Activity. [Related pubchem assays (depositor defined):AID488944]; format: functional; settings: Homo sapiens
[7] = tested on: HEK293; experiment: HEK cell cytotoxicity by LDH release, dose response, cytotoxicity control for IDE activator project, fluorescence, HEK cells (AID 588440); format: functional, cell-based; settings: Homo sapiens;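 also: cytotoxicity by LDH release measuring loss of membrane integrity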
[8] = tested on: HEK293; experiment: optical interference in Abeta FP readout, dose response, artefact control for IDE activator project, biochemical, fluorescence polarization (AID 588442); format: functional, cell-based; settings: Homo sapiens
[9] = target: Melanocortin receptor 4 (Homo sapiens, UniProt P32245); format: functional, cell-based;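 also: Cell-based assay with luminescence read-out, confirmatory dose-response testing for agonist activity of biased ligands at MC4R; human U2OS cells with tagged receptor and beta-arrestin; potency of agonists that increase receptor coupling to beta-arrestin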
[10] = HEK293T cell cytotoxicity, dose response, cytotoxicity control for HIV Vif inhibitor project, cherry-picks (AID 652208); format: functional, cell-based
[11] = Shn3 3'UTR reporter inhibitors, dose response, cell-based, Clone20 osteoblasts, firefly luciferase, cherry-picked (AID 624132); format: functional;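 also: firefly luciferase luminescence from reporter carrying the Shn3 3'UTR in osteoblasts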
[12] = reduction of Shn3 3'UTR firefly luciferase signal, dose response, Schnurri-3 inhibitor project, cell-based, Clone20 osteoblasts, cherry-pick, set 2 (AID 720490); format: functional;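 also: actives lower the luminescence signal as inhibitors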
[13] = inhibitors of control Renilla luciferase reporter, dose response, counter-screen for Shn3 3'UTR targeting project, Clone20-Shn3RL cells, dual-Glo, cherry-pick, set 2 (AID 720724); format: functional, cell-based; settings: Dual-Go Shn3RL
[14] = microbe, parasite or virus in culture; format: functional; settings: Mycobacterium tuberculosis
[15] = cells; settings: A549
[16] = cells; settings: HEK293
[17] = tested on: INS1; experiment: beta cell apoptosis inhibitors, cytokine rescue, dose response, luminescence, retest (AID 449756); format: functional, cell-based; settings: Rattus norvegicus;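 also: cell death triggered by IL-1 beta plus TNF-alpha plus IFN-gamma mixture; protective hits raise ATP signal compared with cytokine alone wells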
[18] = HepG2 cell cytotoxicity, dose response, cytotoxicity control for Shn3 inhibitor project, CellTiter-Glo, cherry-picked (AID 624134); format: functional, cell-based
[19] = target: Protein disulfide-isomerase (Homo sapiens, UniProt P07237); experiment: PDI inhibitors, insulin turbidity readout, confirmation, biochemical, dry powder samples, set 2 (AID 652146)
[20] = ADAM10 inhibitors, peptide cleavage, dose response, biochemical, QFRET (AID 743254);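 also: ADAM10 enzyme with the DM2 quenched FRET peptide as substrate; EDANS fluorescence gain as the protease cuts the substrate; inhibitor potency against ADAM10 proteolytic activity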
[21] = target: Disintegrin and metalloproteinase domain-containing protein 17 (Homo sapiens, UniProt P78536); experiment: ADAM17 protease inhibitors, dose response, counter-screen for ADAM10 exosite inhibitor project, biochemical, quenched FRET substrate (AID 743253)
[22] = control 3'UTR Renilla luciferase suppression, dose response, counter-screen for Shn3 inhibitor project, cell-based, Clone20-Shn3RL, cherry-picked (AID 624133); format: functional
[23] = inhibitors of PGC1a acetylation in cells, dose response, cell-based, cherry-picked samples (AID 720514); format: functional;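 also: potency may reflect raised or lowered acetylation signal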
[24] = target: SWI/SNF-related matrix-associated actin-dependent regulator of chromatin subfamily A member 2 (Homo sapiens, UniProt P51531); experiment: Luminescence-based cell-based high throughput dose response assay to identify activators of the function of SWI/SNF related, matrix associated, actin dependent regulator of chromatin, subfamily a, member 2 (SMARCA2, BRM).; format: functional
[25] = Counterscreen for activators of the function of SWI/SNF related, matrix associated, actin dependent regulator of chromatin, subfamily a, member 2 (SMARCA2, BRM): Luminescence-based cell-based high throughput dose response assay to identify non-selective compounds using the VP16 reporter assay.; format: functional
[26] = target: T3, DNA repair protein RAD52 homolog (Homo sapiens, UniProt P43351); format: functional, biochemical
T3 sequence (P43351 whole entry): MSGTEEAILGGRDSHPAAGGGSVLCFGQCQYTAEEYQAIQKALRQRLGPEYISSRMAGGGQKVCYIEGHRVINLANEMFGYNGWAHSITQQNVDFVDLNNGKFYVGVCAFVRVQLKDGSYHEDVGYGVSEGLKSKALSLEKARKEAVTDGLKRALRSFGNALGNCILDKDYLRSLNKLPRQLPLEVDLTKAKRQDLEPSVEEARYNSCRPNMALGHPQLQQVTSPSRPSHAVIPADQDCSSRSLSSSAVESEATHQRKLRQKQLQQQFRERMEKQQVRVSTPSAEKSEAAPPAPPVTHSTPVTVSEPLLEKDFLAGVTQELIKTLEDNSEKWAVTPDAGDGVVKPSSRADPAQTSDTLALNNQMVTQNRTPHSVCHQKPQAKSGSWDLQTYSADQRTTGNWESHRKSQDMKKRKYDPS

[27] = HEK293 cell cytotoxicity, dose response, cytotoxicity control, ATP luminescence, dry powder, Set6 (AID 743142); format: functional, cell-based
[28] = A549 cell cytotoxicity, dose response, cytotoxicity control, CellTiter-Glo luminescence, dry powder, set 3 (AID 743146); format: functional, cell-based
[29] = cytotoxicity in HeLa cells, dose response, cytotoxicity control, cell-based, 24 h, dry powder, set 2 (AID 651774); format: functional
[30] = target: Fatty acid synthase (Homo sapiens, UniProt P49327); experiment: FAS thioesterase domain inhibitors, SAR follow-up, biochemical, endpoint fluorescence intensity, powder samples (AID 652164); format: functional
[31] = target: T4, Aspartyl aminopeptidase (Plasmodium falciparum 3D7, UniProt Q8I2J3)
T4 sequence (Q8I2J3 whole entry): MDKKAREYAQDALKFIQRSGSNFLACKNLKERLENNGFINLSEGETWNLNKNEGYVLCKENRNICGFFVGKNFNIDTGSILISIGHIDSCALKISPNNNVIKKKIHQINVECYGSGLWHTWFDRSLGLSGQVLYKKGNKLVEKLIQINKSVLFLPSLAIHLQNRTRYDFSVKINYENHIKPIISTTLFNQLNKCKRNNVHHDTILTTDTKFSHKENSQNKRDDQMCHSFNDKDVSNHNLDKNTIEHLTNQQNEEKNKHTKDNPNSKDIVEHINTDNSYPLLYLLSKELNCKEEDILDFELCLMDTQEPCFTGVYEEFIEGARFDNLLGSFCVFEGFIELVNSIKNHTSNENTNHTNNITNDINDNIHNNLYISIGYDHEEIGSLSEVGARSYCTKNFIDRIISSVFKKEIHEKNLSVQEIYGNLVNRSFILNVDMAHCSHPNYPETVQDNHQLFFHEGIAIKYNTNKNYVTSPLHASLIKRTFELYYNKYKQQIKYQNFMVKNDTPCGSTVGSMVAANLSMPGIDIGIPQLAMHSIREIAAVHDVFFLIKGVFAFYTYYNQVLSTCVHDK

[32] = target: Procathepsin L (Homo sapiens, UniProt P07711)

Chain of Fatty acid synthase (P49327 whole entry, the tested form may be a part): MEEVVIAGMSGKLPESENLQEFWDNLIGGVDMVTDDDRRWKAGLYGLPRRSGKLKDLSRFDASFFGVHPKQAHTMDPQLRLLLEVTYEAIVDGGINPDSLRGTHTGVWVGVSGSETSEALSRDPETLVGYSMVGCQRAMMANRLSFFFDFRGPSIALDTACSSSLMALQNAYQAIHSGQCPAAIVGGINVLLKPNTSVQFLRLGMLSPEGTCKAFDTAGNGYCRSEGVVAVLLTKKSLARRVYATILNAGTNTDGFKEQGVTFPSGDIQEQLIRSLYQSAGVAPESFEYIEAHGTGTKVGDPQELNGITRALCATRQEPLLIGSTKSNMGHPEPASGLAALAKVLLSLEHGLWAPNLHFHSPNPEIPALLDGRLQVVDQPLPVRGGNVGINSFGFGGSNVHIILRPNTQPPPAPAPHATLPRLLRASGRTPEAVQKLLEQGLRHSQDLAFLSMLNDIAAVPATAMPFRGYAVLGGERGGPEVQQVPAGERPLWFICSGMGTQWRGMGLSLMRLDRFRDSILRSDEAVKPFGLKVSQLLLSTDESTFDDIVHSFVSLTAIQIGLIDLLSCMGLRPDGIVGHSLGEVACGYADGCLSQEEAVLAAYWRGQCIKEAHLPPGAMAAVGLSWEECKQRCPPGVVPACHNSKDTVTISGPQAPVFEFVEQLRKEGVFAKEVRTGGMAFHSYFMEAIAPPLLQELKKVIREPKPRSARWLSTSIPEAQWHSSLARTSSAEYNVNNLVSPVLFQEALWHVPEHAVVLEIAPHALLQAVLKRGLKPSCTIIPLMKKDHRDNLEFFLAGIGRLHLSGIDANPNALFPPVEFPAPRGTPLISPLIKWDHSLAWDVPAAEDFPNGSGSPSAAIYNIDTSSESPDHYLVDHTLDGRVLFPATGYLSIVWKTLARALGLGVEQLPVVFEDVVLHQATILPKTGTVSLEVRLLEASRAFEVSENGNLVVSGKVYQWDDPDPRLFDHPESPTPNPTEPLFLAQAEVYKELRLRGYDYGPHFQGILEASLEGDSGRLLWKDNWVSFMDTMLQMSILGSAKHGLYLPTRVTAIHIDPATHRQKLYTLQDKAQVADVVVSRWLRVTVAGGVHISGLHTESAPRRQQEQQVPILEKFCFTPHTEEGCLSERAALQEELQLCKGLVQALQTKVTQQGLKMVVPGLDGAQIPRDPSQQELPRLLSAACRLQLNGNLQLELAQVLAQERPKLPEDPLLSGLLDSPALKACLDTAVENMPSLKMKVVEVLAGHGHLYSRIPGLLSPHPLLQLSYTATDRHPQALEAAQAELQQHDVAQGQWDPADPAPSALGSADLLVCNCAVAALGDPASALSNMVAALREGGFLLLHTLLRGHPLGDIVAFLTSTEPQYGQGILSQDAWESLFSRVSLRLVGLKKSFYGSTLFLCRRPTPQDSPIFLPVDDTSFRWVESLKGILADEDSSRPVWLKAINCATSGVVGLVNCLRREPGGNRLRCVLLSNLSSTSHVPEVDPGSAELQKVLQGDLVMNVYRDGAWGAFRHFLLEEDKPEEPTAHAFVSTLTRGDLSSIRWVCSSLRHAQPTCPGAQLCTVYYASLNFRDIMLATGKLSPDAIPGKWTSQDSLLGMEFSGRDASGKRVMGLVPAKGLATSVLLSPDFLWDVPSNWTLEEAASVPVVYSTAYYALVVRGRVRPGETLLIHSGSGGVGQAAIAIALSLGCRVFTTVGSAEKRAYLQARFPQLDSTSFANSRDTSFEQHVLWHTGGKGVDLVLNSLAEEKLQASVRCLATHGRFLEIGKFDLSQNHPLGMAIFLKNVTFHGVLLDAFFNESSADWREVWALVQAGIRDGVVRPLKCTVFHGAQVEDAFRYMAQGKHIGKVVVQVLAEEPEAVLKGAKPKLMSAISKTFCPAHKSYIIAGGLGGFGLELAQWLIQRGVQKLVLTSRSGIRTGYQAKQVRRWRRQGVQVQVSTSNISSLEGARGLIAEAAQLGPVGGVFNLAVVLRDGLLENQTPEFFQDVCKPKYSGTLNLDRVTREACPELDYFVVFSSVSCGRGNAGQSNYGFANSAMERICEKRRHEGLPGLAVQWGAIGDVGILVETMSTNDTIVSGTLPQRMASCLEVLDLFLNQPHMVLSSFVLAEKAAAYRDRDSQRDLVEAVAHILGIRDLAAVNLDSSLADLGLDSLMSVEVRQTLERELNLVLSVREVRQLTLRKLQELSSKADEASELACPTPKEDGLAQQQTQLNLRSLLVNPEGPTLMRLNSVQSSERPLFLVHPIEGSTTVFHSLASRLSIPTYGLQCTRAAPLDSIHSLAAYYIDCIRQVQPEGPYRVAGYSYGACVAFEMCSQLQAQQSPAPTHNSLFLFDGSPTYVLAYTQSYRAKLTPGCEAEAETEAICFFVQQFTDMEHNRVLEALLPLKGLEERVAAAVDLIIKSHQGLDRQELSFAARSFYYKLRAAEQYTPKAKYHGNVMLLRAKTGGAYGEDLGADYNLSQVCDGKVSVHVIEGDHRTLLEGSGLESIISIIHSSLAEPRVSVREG
Chain of 5-hydroxytryptamine receptor 2A (P35363 whole entry): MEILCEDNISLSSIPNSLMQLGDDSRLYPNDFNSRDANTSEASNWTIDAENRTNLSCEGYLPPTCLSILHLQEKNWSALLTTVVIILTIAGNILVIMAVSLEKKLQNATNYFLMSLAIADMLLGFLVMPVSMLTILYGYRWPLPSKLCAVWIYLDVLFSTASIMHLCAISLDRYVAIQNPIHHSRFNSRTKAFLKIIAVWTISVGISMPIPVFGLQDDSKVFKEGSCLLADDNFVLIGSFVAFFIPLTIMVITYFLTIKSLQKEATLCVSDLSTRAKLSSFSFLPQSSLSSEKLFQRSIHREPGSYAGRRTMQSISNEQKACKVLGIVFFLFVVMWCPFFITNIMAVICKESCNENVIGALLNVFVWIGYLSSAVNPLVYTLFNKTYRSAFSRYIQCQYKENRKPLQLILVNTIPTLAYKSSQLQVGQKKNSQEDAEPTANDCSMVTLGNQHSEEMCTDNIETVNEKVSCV
Chain of Disintegrin and metalloproteinase domain-containing protein 17 (P78536 whole entry, the tested form may be a part): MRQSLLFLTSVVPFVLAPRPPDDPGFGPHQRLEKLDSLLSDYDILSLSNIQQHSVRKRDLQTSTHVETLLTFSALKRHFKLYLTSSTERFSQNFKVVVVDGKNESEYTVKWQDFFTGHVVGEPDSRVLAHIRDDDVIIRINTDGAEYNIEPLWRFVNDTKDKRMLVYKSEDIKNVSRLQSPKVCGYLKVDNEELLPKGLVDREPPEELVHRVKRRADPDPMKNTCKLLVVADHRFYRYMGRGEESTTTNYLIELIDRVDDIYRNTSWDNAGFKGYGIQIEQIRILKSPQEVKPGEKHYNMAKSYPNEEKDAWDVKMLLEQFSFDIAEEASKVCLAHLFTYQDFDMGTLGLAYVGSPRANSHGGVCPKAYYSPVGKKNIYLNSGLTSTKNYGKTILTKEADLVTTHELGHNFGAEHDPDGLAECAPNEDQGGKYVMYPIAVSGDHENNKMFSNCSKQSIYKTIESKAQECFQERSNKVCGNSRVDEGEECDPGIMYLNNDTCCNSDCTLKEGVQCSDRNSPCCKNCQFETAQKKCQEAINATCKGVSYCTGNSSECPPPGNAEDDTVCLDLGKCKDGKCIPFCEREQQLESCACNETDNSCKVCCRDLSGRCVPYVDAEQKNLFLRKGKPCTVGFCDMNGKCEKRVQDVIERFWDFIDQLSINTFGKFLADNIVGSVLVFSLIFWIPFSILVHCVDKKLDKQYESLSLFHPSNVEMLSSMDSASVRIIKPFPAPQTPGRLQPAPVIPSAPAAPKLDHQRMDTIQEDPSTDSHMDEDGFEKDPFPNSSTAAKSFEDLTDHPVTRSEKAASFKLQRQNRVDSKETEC
Chain of Melanocortin receptor 4 (P32245 whole entry): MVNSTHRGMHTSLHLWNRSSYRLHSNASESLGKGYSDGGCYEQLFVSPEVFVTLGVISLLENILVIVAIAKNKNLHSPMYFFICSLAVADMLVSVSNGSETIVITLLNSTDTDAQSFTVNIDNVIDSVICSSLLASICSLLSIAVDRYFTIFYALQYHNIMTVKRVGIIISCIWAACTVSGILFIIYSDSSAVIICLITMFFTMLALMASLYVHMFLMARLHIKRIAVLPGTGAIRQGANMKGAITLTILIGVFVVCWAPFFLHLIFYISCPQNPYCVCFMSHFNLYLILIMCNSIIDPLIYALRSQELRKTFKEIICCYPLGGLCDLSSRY
Chain of Protein disulfide-isomerase (P07237 whole entry): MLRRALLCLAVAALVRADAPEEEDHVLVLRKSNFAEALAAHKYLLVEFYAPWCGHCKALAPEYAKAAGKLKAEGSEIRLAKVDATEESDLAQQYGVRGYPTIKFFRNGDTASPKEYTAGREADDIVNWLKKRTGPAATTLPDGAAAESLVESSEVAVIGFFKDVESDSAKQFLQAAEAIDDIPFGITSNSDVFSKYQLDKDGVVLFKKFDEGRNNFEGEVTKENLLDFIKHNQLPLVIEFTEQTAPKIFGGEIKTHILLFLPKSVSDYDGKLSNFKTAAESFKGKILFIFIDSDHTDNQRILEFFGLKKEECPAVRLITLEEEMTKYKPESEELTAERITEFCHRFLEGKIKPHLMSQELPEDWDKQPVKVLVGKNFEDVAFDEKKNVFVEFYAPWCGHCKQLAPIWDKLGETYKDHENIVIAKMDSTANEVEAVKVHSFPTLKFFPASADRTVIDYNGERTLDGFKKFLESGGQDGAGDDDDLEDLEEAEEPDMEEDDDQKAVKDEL
Chain of Mu-type opioid receptor (P35372 whole entry): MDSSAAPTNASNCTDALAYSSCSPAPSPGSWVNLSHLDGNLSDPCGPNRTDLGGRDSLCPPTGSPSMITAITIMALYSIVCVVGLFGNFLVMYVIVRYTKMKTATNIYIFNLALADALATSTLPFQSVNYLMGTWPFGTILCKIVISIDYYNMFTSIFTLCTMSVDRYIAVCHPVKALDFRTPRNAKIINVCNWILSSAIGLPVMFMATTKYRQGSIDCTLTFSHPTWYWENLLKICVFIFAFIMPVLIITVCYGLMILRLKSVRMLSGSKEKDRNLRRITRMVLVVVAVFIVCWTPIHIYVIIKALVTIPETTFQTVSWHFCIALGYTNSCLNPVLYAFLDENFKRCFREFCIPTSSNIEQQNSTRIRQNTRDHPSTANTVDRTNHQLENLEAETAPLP

CCOC(=O)C1=CCN(Cc2ccccc2)CC1
EC50 [1]: 92.5 µM (inactive) | EC50 [2]: 5.35 µM (active)

Cc1cc(NC(=O)c2cncc(Br)c2)ccc1NC(=O)c1cc2ccccc2o1
AC50 [3]: 10.4 µM (active) | EC50 [4]: > 54.7 µM (inactive) | EC50 [5]: > 54.7 µM (inactive) | AC50 [6]: 26.2 µM (active) | IC50 [7]: 5.63 µM (active) | EC50 [8]: > 55.9 µM (inactive) | EC50 [9]: > 89.2 µM (inactive) | AC50 [10]: 15.4 µM (active)

Cc1nc2scc(C)n2c(=O)c1S(=O)(=O)Nc1ccc(N2CCOCC2)c(Cl)c1
AC50 [11]: 1.67 µM (active) | AC50 [12]: 2.04 µM (active) | AC50 [13]: 38.3 µM (active)

N=c1oc2cc(O)ccc2cc1C(=O)Nc1ccc(Br)cc1
CC50 [14]: 23.7 µM (active) | AC50 [15]: > 52 µM (inactive) | AC50 [16]: > 52 µM (inactive)

COc1ccc(OC)c(NC(=O)CN(Cc2ccc(F)cc2)C2CCCCC2)c1
AC50 [17]: 4.33 µM (active) | AC50 [11]: 4.99 µM (active) | AC50 [18]: 50.8 µM (active) | AC50 [12]: 6.54 µM (active) | AC50 [13]: 34.6 µM (active)

CCOC(=O)C1(CCOc2ccccc2)CCN(Cc2ccc(OC)cc2)CC1
AC50 [19]: > 30 µM (inactive)

C=CCC[C@@H](Cc1ccc(F)cc1)C(=O)O[C@H](CNC(=O)[C@H](CC=C)CC(=O)N(CCO)Cc1ccccc1)c1ccccc1
IC50 [20]: 12.2 µM (inactive) | IC50 [21]: > 69.5 µM (inactive)

COc1cc(NC(=O)NCc2ccco2)ccc1-c1ccc(NC(=O)NCc2ccco2)cc1OC
AC50 [11]: 3.19 µM (active) | AC50 [18]: > 70 µM (inactive) | AC50 [22]: 10.3 µM (active) | AC50 [10]: > 52 µM (inactive) | AC50 [23]: 14 µM (active)

CN(C)CCNC(=O)c1cccc(-c2cc(NC=O)c3ncc(-c4cccc(C(F)(F)F)c4)n3c2)c1
EC50 [9]: > 89.2 µM (inactive) | EC50 [24]: > 91.2 µM (inactive) | EC50 [25]: > 91.2 µM (inactive) | AC50 [26]: 4.34 µM (active)

CCc1nc2ccc(C(=O)Nc3ccc(OC)c(OC)c3)cn2c1N(CC)Cc1cccc(Br)c1
IC50 [20]: > 69.5 µM (inactive) | IC50 [21]: > 69.5 µM (inactive)

Cc1c(C(=O)NCc2cccc([N+](=O)[O-])c2)sc(=O)n1Cc1cccc(F)c1
AC50 [15]: 48.4 µM (active)

CCOC(=O)C1CCN(C(=O)OC(C)(C)C)CC1
AC50 [19]: > 30 µM (inactive)

N#Cc1ccc(C(=O)NCCC(=O)N[C@@H]2CCCc3ccccc32)cc1
AC50 [27]: 17.1 µM (active) | AC50 [28]: > 52 µM (inactive)

O=C(Cc1ccc(Cl)cc1)NC1CCCC1
AC50 [29]: > 70 µM (inactive)

CCC(=O)Nc1nc(-c2ccc(S(=O)(=O)N(C)C)cc2)cs1
IC50 [30]: 1.08 µM (active)

O=C(CCNC(=O)c1ccc2c(c1)OC(F)(F)O2)N[C@@H]1CCCc2ccccc21
AC50 [27]: 7.51 µM (active) | AC50 [28]: > 52 µM (inactive)

CCN(CC)S(=O)(=O)c1ccc(-c2csc(NC(=O)C3CCCC3)n2)cc1
IC50 [30]: 1.18 µM (active)

CNC[C@H](O)c1ccc(O)c(O)c1 [EPINEPHRINE BITARTRATE]
IC50 [31]: 3.01 µM (active) | IC50 [32]: > 59.6 µM (not active) | EC50 [2]: 0.586 µM (active)
